Experimental data as given in patent US20260226037A1, “MICROTUBULE TARGETING AGENTS” (ARIEL SCIENTIFIC INNOVATIONS LTD., priority 2022, published 2026).
Where two headings read alike, the source gives them in different places.

Columns and labels:
RPMI 8226 cells = experiment: XTT cytotoxicity, RPMI 8226; type: cell-based; conditions: Homo sapiens
Experimental: (§1) The cytotoxic activity of the novel family was evaluated against various tumor cells, including myeloma cells, acute lymphoblastic leukemia cells, acute monocytic leukemia cells, chronic myelogenous leukemia cells, pancreatic cancer cells, breast cancer cells, uterine sarcoma cells, cervix adenocarcinoma cells, ovary cancer cells, melanoma cells, osteosarcoma cells, prostate cancer cells, lung cancer cells, neuroblastoma cells and colorectal adenocarcinoma cells by XTT assay.

RPMI-DOX40 cells = experiment: XTT cytotoxicity, RPMI-DOX40; type: cell-based; conditions: for IC50 ratio between resistant and non-resistant cells: RPMI-DOX40 / RPMI 8226
Experimental: as §1

RPMI-LR5 cells = experiment: XTT cytotoxicity, RPMI-LR5; type: cell-based; conditions: for IC50 ratio between resistant and non-resistant cells: RPMI-LR5 / RPMI 8226
Experimental: as §1

RPMI-MR20 cells = experiment: XTT cytotoxicity, RPMI-MR20; type: cell-based; conditions: for IC50 ratio between resistant and non-resistant cells: RPMI-MR20 / RPMI 8226
Experimental: as §1

MM1.S cells = experiment: XTT cytotoxicity, MM1.S; type: cell-based; conditions: Homo sapiens
Experimental: as §1

MM1.R cells = experiment: XTT cytotoxicity, MM1.R; type: cell-based; conditions: for IC50 ratio between resistant and non-resistant cells: MM1.R / MM1.S; for IC50: MM.1R
Experimental: as §1

NALM6 cells = experiment: XTT cytotoxicity, NALM6; type: cell-based; conditions: Homo sapiens, NALM-6
Experimental: as §1
(§2) Most tubulin-binding anticancer drugs currently used in the clinic are substrates for Pgp effux pump. […] The inventors tested the viability of NALM6 acute lymphoblastic leukemia cell line (ALL) and its corresponding doxorubicin resistant N6/ADR cell line that overexpress Pgp glycoprotein and has cross-resistance to vincristine.

N6/ADR cells = experiment: XTT cytotoxicity, N6/ADR; type: cell-based; conditions: for IC50 ratio between resistant and non-resistant cells: N6/ADR / NALM6
Experimental: as §1, §2

MCF7 cells = experiment: XTT cytotoxicity, MCF7; type: cell-based; conditions: Homo sapiens; MCF7, breast adenocarcinoma, non-resistant
Experimental: as §1

MCF7-VP cells = experiment: XTT cytotoxicity, MCF7-VP; type: cell-based; conditions: for IC50: Homo sapiens, MCF7-VP, breast adenocarcinoma, MRP overexpression; for IC50 ratio between resistant and non-resistant cells: MCF7-VP / MCF7
Experimental: as §1

MES-SA cells = experiment: XTT cytotoxicity, MES-SA; type: cell-based; conditions: Homo sapiens, poorly differentiated uterine sarcoma, non-resistant
Experimental: as §1

MES-SA/DX5 cells = experiment: XTT cytotoxicity, MES-SA/DX5; type: cell-based; conditions: for IC50: Homo sapiens, MES-SA/DX5, uterine sarcoma, P-gp overexpression; for IC50 ratio between resistant and non-resistant cells: MES-SA/DX5 / MES-SA
Experimental: as §1

[1] = tested on: colchicine binding site on tubulin protein; experiment: EBI competition assay, RPMI-8226 cells; type: cell-based; conditions: RPMI-8226 living cells
RPMI8226 cells = experiment: Cell cycle distribution by flow cytometry; type: cell-based; conditions: 6 hours; IC50, IC50x2.5 and IC50x5 concentrations
Experimental: Cell cycle arrest is a shared consequence of MTAs treatment. The effects of cell cycle distribution were determined in RPMI8226 cells treated for 6 and 18 hours with a range of concentrations of the molecules. The cells were stained with propidium iodide and cell cycle distribution was measured using a cytoFLEX flow cytometer.

RPMI8226 myeloma cells = experiment: Xenograft murine myeloma model, antitumor efficacy; type: in vivo, mice
Experimental: In vivo anti-cancer efficacy of the molecules was evaluated in a xenograft murine myeloma model. Male SCID mice (6-8 weeks old) were maintained in accordance with Institutional Animal Care Use Committee guidelines. Mice were housed in the Animal Research Facility of Ariel University and experiments were performed in accordance with approved protocols. […] Mice were sacrificed when mean tumor volume of vehicle treated group reached 1500 mm3, or mice appeared moribund to prevent unnecessary morbidity. Mean tumor volume represents the average of tumor volume in each treatment group during the experiment. The weight of the tumors was measured at the end of the experiment and expressed as mean tumor weight per group. Body weight is expressed as mean body mice weight per group. The individual relative tumor volume (RTV) was defined as Vx/V1, where Vx is the mean tumor volume in mm3 at a given time and V1 at the start of treatment. Relative tumor volume is determined by calculating RTV (%) (mean RTV of treated group)/(mean RTV of control group)). Relative tumor volume inhibition is determined by calculating RTVI (%) (1-RTV %)

[2] = Xenograft murine myeloma model, body weight and toxicity signs; type: in vivo; conditions: during the experiment
Experimental: In vivo anti-cancer efficacy of the molecules was evaluated in a xenograft murine myeloma model. Male SCID mice (6-8 weeks old) were maintained in accordance with Institutional Animal Care Use Committee guidelines. Mice were housed in the Animal Research Facility of Ariel University and experiments were performed in accordance with approved protocols. During the experiment, RPMI8226 myeloma cells in exponential growth were harvested from culture, washed three times with sterile PBS, counted and resuspended in sterile PBS (1.5×10^7cells mouse/0.1 ml PBS) and subcutaneously injected on the right flank of male C.B-17/IcrHsd-Prkdc-scid, […] mice. After two weeks of cells injection, when tumors reached a size between 30-60 mm3, mice were assigned into different groups (n=3-5) and started receiving treatment. Body weights were determined twice weekly along with tumor volume {V=[length×(width)2]/2}measurements using electronical caliper. Mice were sacrificed when mean tumor volume of vehicle treated group reached 1500 mm3, or mice appeared moribund to prevent unnecessary morbidity.
The weight of the tumors was measured at the end of the experiment and expressed as mean tumor weight per group. Body weight is expressed as mean body mice weight per group.

purified tubulin = experiment: Tubulin polymerization, cell-free assay; type: biochemical; conditions: tubulin 2.00 mg/mL; 1, 15 and 30 μM; 37° C., 100 min; vs vehicle
Experimental: The effect of the compounds on their ability to inhibit tubulin polymerization, was tested against a vehicle control by evaluating polymerization of purified tubulin in a cell-free assay where tubulin (2.00 mg/mL) was exposed to vehicle control or 1, 15 and 30 μM of the compounds (n=2). Polymerizations were tracked by an increase in fluorescence excitation wavelength is 340-360 nm and emission wavelength at 410-460 nm. Fluorescence was monitored at 37° C. every 30 sec for 100 min.

In the case of `Cc1c(C(=O)OCCCCN)oc2c1C(=O)CC(c1ncco1)C2.Cl` (stereo not shown) [SMS228, 4-((3-methyl-6-(oxazol-2-yl)-4-oxo-4,5,6,7-tetrahydrobenzofuran-2-carbonyl)oxy)butan-1-aminium chloride], the IC50 (RPMI 8226 cells; RPMI-8226) is reported as 1530 nM, the IC50 (RPMI-DOX40 cells) is reported as 1310 nM and the “IC50 ratio between resistant and non-resistant cells” value (RPMI-DOX40 cells) is reported as 0.853. The IC50 (RPMI-LR5 cells) was 1300 nM, the “IC50 ratio between resistant and non-resistant cells” value (RPMI-LR5 cells) was 0.847 and the IC50 (RPMI-MR20 cells) was 2230 nM. For the same compound, the “IC50 ratio between resistant and non-resistant cells” value (RPMI-MR20 cells) was >1.454, the IC50 (MM1.S cells) was 4430 nM and the “IC50 ratio between resistant and non-resistant cells” value (MM1.R cells) was >0.406. For the same compound, the IC50 (MM1.R cells) was > 1800 nM, the IC50 (NALM6 cells) was 350 nM and the IC50 (N6/ADR cells) was 360 nM. For the same compound, the “IC50 ratio between resistant and non-resistant cells” value (N6/ADR cells) was 1.029, the IC50 (MCF7 cells) was 8810 nM and the IC50 (MCF7-VP cells) was 12300 nM. The “IC50 ratio between resistant and non-resistant cells” value (MCF7-VP cells) was 1.400, the IC50 (MES-SA cells) was 9520 nM and the IC50 (MES-SA/DX5 cells) was 7410 nM. For the same compound, the “IC50 ratio between resistant and non-resistant cells” value (MES-SA/DX5 cells) was 0.778, the “prevention of covalent binding of EBI to the colchicine binding site” value [1] was “did not prevent the covalent binding of EBI to the colchicine binding site” and the cell cycle arrest (RPMI8226 cells) was “cell cycle arrest in G2M phase”. For the same compound, the “Relative tumor volume inhibition” value (RPMI8226 myeloma cells; 15 mg/kg intraperitoneally, after 21 days) was 20%, the “Relative tumor volume inhibition” value (RPMI8226 myeloma cells; 30 mg/kg intraperitoneally, after 21 days) was 23% and the “growth inhibition rate (tumor weight at end of experiment)” value (RPMI8226 myeloma cells; 30 mg/kg subcutaneously) was 70%. The “Relative tumor volume inhibition” value (RPMI8226 myeloma cells; 30 mg/kg subcutaneously, after 19 days) was 45%, the “tumor volume lower in the treated group vs vehicle” value (RPMI8226 myeloma cells; 30 mg/kg subcutaneously, beginning of the experiment) was 56% and the “tumor volume lower in the treated group vs vehicle” value (RPMI8226 myeloma cells; 30 mg/kg subcutaneously, day 21) was 76%. The “Relative tumor volume inhibition” value (RPMI8226 myeloma cells; 50 mg/kg intraperitoneally, after 21 days) was 42%, the “decrease of tumor volume as compared to vehicle at the same day” value (RPMI8226 myeloma cells; 50 mg/kg intraperitoneally, day 7 to 19) was 30% and the “decrease of tumor volume as compared to vehicle at the same day” value (RPMI8226 myeloma cells; 50 mg/kg intraperitoneally, day 21) was 40%. The “growth inhibition rate (tumor weight at end of experiment)” value (RPMI8226 myeloma cells; intraperitoneally) was 44%, the “body weight and other signs of potential toxicity” value ([2]; 30 mg/kg subcutaneously) was “No significant changes in body weight or other signs of potential toxicity” and the “body weight and other signs of potential toxicity” value ([2]; intraperitoneally) was “No significant changes in body weight or other signs of potential toxicity”.

In the case of `Cc1c(C(=O)OC2CCCC2)[nH]c2c1C(=O)CC(c1ncco1)C2` (stereo not shown) [SMS101, cyclopentyl 3-methyl-6-(oxazol-2-yl)-4-oxo-4,5,6,7-tetrahydro-1H-indole-2-carboxylate], the IC50 (RPMI 8226 cells; RPMI 8226, multiple myeloma, non-resistant, read-out: IC50) is reported as 90 nM, the IC50 (RPMI-DOX40 cells; RPMI-DOX40, multiple myeloma, P-gp overexpression, read-out: IC50) is reported as 77 nM and the “IC50 ratio between resistant and non-resistant cells” value (RPMI-DOX40 cells) is reported as 0.856. The IC50 (RPMI-LR5 cells; RPMI-LR5, multiple myeloma, melphalan resistant, read-out: IC50) was 73 nM, the “IC50 ratio between resistant and non-resistant cells” value (RPMI-LR5 cells) was 0.811 and the IC50 (RPMI-MR20 cells; RPMI-MR20, mitoxantrone resistant, read-out: IC50) was 99 nM. For the same compound, the “IC50 ratio between resistant and non-resistant cells” value (RPMI-MR20 cells) was 1.100, the IC50 (MM1.S cells; multiple myeloma, non-resistant, read-out: IC50) was 129 nM and the “IC50 ratio between resistant and non-resistant cells” value (MM1.R cells) was 3.953. For the same compound, the IC50 (MM1.R cells; MM1.R, multiple myeloma, dexamethasone resistant, read-out: IC50) was 510 nM, the IC50 (NALM6 cells; NALM6, acute lymphoblastic leukemia, non-resistant, read-out: IC50) was 48 nM and the “IC50 ratio between resistant and non-resistant cells” value (N6/ADR cells) was 0.875. It also gave an IC50 (N6/ADR cells; N6/ADR, acute lymphoblastic leukemia, P-gp overexpression, read-out: IC50) of 42 nM, an IC50 (MCF7 cells) of 11900 nM and an IC50 (MCF7-VP cells) of 351 nM. The “IC50 ratio between resistant and non-resistant cells” value (MCF7-VP cells) was 0.029, the IC50 (MES-SA cells) was 186 nM and the IC50 (MES-SA/DX5 cells) was 213 nM. The “IC50 ratio between resistant and non-resistant cells” value (MES-SA/DX5 cells) was 1.145, the “rate of tubulin polymerization” value (purified tubulin) was “inhibited the rate of tubulin polymerization in a concentration-dependent manner” and the “prevention of covalent binding of EBI to the colchicine binding site” value [1] was “prevented the covalent binding of EBI to the colchicine binding site”. For the same compound, the cell cycle arrest (RPMI8226 cells) was “cell cycle arrest in G2M phase”.
